Assay results published in patent US20210220356A1, “DIHYDROPYRIMIDINE DERIVATIVES AND USES THEREOF IN THE TREATMENT OF HBV INFECTION OR OF HBV-INDUCED DISEASES” (Janssen Sciences Ireland Unlimited Company, priority 2018, published 2021).
Where two headings read alike, the source gives them in different places.

Legend:
[1] = Cytotoxicity determination in HepG2.2.15 cells (CCK-8); assay type: cell-based; conditions: human, HepG2.2.15 cells, HepG2.2.15 cells, 5,000 cells/well, 6 days of compound treatment, CCK-8 absorbance 450 nm, highest concentration 100 uM
In short: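 HepG2.2.15 cells, 5,000/well in 2% FBS medium, treated 6 days with compound (medium refreshed midway), 8-point 3-fold dilutions from 100 uM top. Viability read by CCK-8, 2.5 h at 37° C, absorbance 450 nm with 630 nm reference; CC50 from curve fitting.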

HBV = HBV inhibitory activity in HepG2.2.15 cells (HBV DNA in culture medium by q-PCR); assay type: cell-based; conditions: HepG2.2.15 cells, 40,000 cells/well, 6 days of compound treatment, HBV DNA in culture medium by q-PCR, highest concentration 10 uM, read-out: EC50
In short: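 HepG2.2.15 cells (40,000/well, 2% FBS) treated 6 days with compounds, medium refreshed once; 8 points, 3-fold dilution, top 10 uM. Secreted HBV DNA in medium extracted and quantified by q-PCR; EC50 calculated from dose-response.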

[2] = Hepatitis B virus, HepG2.2.15, 144 h

Structure (SMILES): COC(=O)C1=C(C2CCc3nn(CCC(=O)O)cc3C2)NC(c2nccs2)=NC1c1cccc(F)c1Cl (single isomer, unassigned) [Compound 44b, 3-(5-(6-(2-Chloro-3-fluorophenyl)-5-(methoxycarbonyl)-2-(thiazol-2-yl)-3,6-dihydropyrimidin-4-yl)-4,5,6,7-tetrahydro-2H-indazol-2-yl)propanoic acid]
- CC50 at 6 days [1]: 21 µM
- EC50 (HBV): 0.383 µM

Structure (SMILES): COC(=O)C1=C(C2CCc3nn(CCC(=O)O)cc3C2)NC(c2nccs2)=NC1c1cccc(F)c1Br (single isomer, unassigned) [Compound 45b, 3-(5-(6-(2-Bromo-3-fluorophenyl)-5-(methoxycarbonyl)-2-(thiazol-2-yl)-3,6-dihydropyrimidin-4-yl)-4,5,6,7-tetrahydro-2H-indazol-2-yl)propanoic acid]
- CC50 at 6 days [1]: 18.2 µM
- EC50 (HBV): 0.213 µM

Structure (SMILES): COC(=O)C1=C(C2CCc3nn(CCC(=O)O)cc3C2)NC(c2nccs2)=NC1c1ccc(F)c(F)c1Br (single isomer, unassigned) [Compound 46a, 3-(5-(6-(2-Bromo-3,4-difluorophenyl)-5-(methoxycarbonyl)-2-(thiazol-2-yl)-3,6-dihydropyrimidin-4-yl)-4,5,6,7-tetrahydro-2H-indazol-2-yl)propanoic acid]
- CC50 at 6 days [1]: 17.3 µM
- EC50 (HBV): 0.219 µM

Structure (SMILES): CCOC(=O)C1=C(C2CCc3nn(CCCC(=O)O)cc3C2)NC(c2nccs2)=NC1c1ccc(F)c(F)c1Cl (single isomer, unassigned) [Compound 50b, 4-(5-(6-(2-Chloro-3,4-difluorophenyl)-5-(ethoxycarbonyl)-2-(thiazol-2-yl)-3,6-dihydropyrimidin-4-yl)-4,5,6,7-tetrahydro-2H-indazol-2-yl)butanoic acid]
- CC50 at 6 days [1]: 12.6 µM
- EC50 (HBV): 0.116 µM

Structure (SMILES): CCOC(=O)C1=C(C2CCc3nn(C(C)CC(=O)O)cc3C2)NC(c2nccs2)=NC1c1ccc(F)c(F)c1Cl (single isomer, unassigned) [Compound 51b, 3-(5-(6-(2-chloro-3,4-difluorophenyl)-5-(ethoxycarbonyl)-2-(thiazol-2-yl)-3,6-dihydropyrimidin-4-yl)-4,5,6,7-tetrahydro-2H-indazol-2-yl)butanoic acid]
- CC50 at 6 days [1]: 7.7 µM
- EC50 (HBV): 0.0117 µM

Structure (SMILES): CCOC(=O)C1=C(C2CCc3nn(CC(C)(C)C(=O)O)cc3C2)NC(c2nccs2)=NC1c1ccc(F)c(F)c1Cl (single isomer, unassigned) [Compound 53a, 3-(5-(6-(2-Chloro-3,4-difluorophenyl)-5-(ethoxycarbonyl)-2-(thiazol-2-yl)-3,6-dihydropyrimidin-4-yl)-4,5,6,7-tetrahydro-2H-indazol-2-yl)-2,2-dimethylpropanoic acid]
- CC50 at 6 days [1]: 7.2 µM
- EC50 (HBV): 0.132 µM

Structure (SMILES): CCOC(=O)C1=C(C2CCc3oc(CCC(=O)O)nc3C2)NC(c2nccs2)=NC1c1ccc(F)c(F)c1Cl (single isomer, unassigned) [Compound 57c, 3-(5-(6-(2-Chloro-3,4-difluorophenyl)-5-(ethoxycarbonyl)-2-(thiazol-2-yl)-3,6-dihydropyrimidin-4-yl)-4,5,6,7-tetrahydrobenzo[d]oxazol-2-yl)propanoic acid]
- CC50 at 6 days [1]: 7.7 µM
- EC50 (HBV): 0.0125 µM

Structure (SMILES): CCOC(=O)C1=C(C2CCc3nc(CCC(=O)O)oc3C2)NC(c2nccs2)=NC1c1ccc(F)c(F)c1Cl (single isomer, unassigned) [Compound 58b, 3-(6-(6-(2-Chloro-3,4-difluorophenyl)-5-(ethoxycarbonyl)-2-(thiazol-2-yl)-3,6-dihydropyrimidin-4-yl)-4,5,6,7-tetrahydrobenzo[d]oxazol-2-yl)propanoic acid]
- CC50 at 6 days [1]: 9.8 µM
- EC50 (HBV; [2]): 0.0062 µM

Structure (SMILES): CCOC(=O)C1=C(C2CCc3sc(CCC(=O)O)nc3C2)NC(c2nccs2)=NC1c1ccc(F)c(F)c1Cl (single isomer, unassigned) [Compound 59c, 3-(5-(6-(2-Chloro-3,4-difluorophenyl)-5-(ethoxycarbonyl)-2-(thiazol-2-yl)-3,6-dihydropyrimidin-4-yl)-4,5,6,7-tetrahydrobenzo[d]thiazol-2-yl)propanoic acid]
- CC50 at 6 days [1]: 4.1 µM
- EC50 (HBV; [2]): 0.132 µM

Structure (SMILES): CCOC(=O)C1=C(C2CCc3nc(CCC(=O)O)sc3C2)NC(c2nccs2)=NC1c1ccc(F)c(F)c1Cl (single isomer, unassigned) [Compound 60b, 3-(6-(6-(2-Chloro-3,4-difluorophenyl)-5-(ethoxycarbonyl)-2-(thiazol-2-yl)-3,6-dihydropyrimidin-4-yl)-4,5,6,7-tetrahydrobenzo[d]thiazol-2-yl)propanoic acid]
- CC50 at 6 days [1]: 3.4 µM
- EC50 (HBV; [2]): 0.0241 µM

Structure (SMILES): COC(=O)C1=C(C2CCc3[nH]ncc3C2)NC(c2nccs2)=NC1c1ccc(F)c(F)c1Cl (single isomer, unassigned) [Compound 65a, Methyl 4-(2-chloro-3,4-difluorophenyl)-6-(4,5,6,7-tetrahydro-1H-indazol-5-yl)-2-(thiazol-2-yl)-1,4-dihydropyrimidine-5-carboxylate]
- CC50 at 6 days [1]: 11.8 µM
- EC50 (HBV): 0.0563 µM

Structure (SMILES): COC(=O)C1=C(C2CCc3nn(CCC(=O)O)cc3C2)NC(c2nccs2)=NC1c1ccc(F)c(F)c1Cl (single isomer, unassigned) [Compound 70b, 3-(-5-(6-(2-chloro-3,4-difluorophenyl)-5-(methoxycarbonyl)-2-(thiazol-2-yl)-3,6-dihydropyrimidin-4-yl)-4,5,6,7-tetrahydro-2H-indazol-2-yl)propanoic acid]
- CC50 at 6 days [1]: 22.7 µM
- EC50 (HBV): 0.083 µM

Structure (SMILES): COC(=O)C1=C(C2CCc3nc([C@H]4C[C@H](C(=O)O)C4)oc3C2)NC(c2nccs2)=NC1c1ccc(F)c(F)c1Cl (single isomer, unassigned) [Compound 72b, (trans)-3-(6-(6-(2-Chloro-3,4-difluorophenyl)-5-(methoxycarbonyl)-2-(thiazol-2-yl)-3,6-dihydropyrimidin-4-yl)-4,5,6,7-tetrahydrobenzo[d]oxazol-2-yl)cyclobutanecarboxylic acid]
- CC50 at 6 days [1]: 7 µM
- EC50 (HBV): 0.0215 µM

Structure (SMILES): COC(=O)C1=C(C2CCc3nn(CCCC(=O)O)cc3C2)NC(c2nccs2)=NC1c1ccc(F)c(F)c1Cl (single isomer, unassigned) [Compound 74B, 4-(5-(6-(2-chloro-3,4-difluorophenyl)-5-(methoxycarbonyl)-2-(thiazol-2-yl)-3,6-dihydropyrimidin-4-yl)-4,5,6,7-tetrahydro-2H-indazol-2-yl)butanoic acid]
- CC50 at 6 days [1]: 19.6 µM
- EC50 (HBV): 0.0661 µM

Structure (SMILES): COC(=O)C1=C(C2CCc3nn(C(C)(C)CC(=O)O)cc3C2)NC(c2nccs2)=NC1c1ccc(F)c(F)c1Cl (single isomer, unassigned) [Compound 82b]
- CC50 at 6 days [1]: 15.9 µM
- EC50 (HBV): 0.0861 µM

Structure (SMILES): CCOC(=O)C1=C(C2CCc3nn([C@H]4C[C@H](C(=O)O)C4)cc3C2)NC(c2nccs2)=NC1c1ccc(F)c(F)c1Cl (stereo partly drawn) [Compound 54, (trans)-3-(5-(6-(2-Chloro-3,4-difluorophenyl)-5-(ethoxycarbonyl)-2-(thiazol-2-yl)-3,6-dihydropyrimidin-4-yl)-4,5,6,7-tetrahydro-2H-indazol-2-yl)cyclobutanecarboxylic acid]
- CC50 at 6 days [1]: 16 µM
- EC50 (HBV; [2]): 0.0198 µM

Structure (SMILES): CCOC(=O)C1=C(C2Cc3cn(CCC(=O)O)nc3C(C)(C)C2)NC(c2nccs2)=NC1c1ccc(F)c(F)c1Cl (centres unmarked) [Compound 55a, 3-(5-(6-(2-chloro-3,4-difluorophenyl)-5-(ethoxycarbonyl)-2-(thiazol-2-yl)-3,6-dihydropyrimidin-4-yl)-7,7-dimethyl-4,5,6,7-tetrahydro-2H-indazol-2-yl)propanoic acid]
- CC50 at 6 days [1]: 8.5 µM
- EC50 (HBV): 0.081 µM

Structure (SMILES): CCOC(=O)C1=C(C2CCc3c(cn(CCC(=O)O)c3C#N)C2)NC(c2nccs2)=NC1c1ccc(F)c(F)c1Cl (centres unmarked) [Compound 62, 3-(5-(6-(2-Chloro-3,4-difluorophenyl)-5-(ethoxycarbonyl)-2-(thiazol-2-yl)-3,6-dihydropyrimidin-4-yl)-1-cyano-4,5,6,7-tetrahydro-2H-isoindol-2-yl)propanoic acid]
- CC50 at 6 days [1]: 5 µM
- EC50 (HBV; [2]): 0.0069 µM

Structure (SMILES): CCOC(=O)C1=C(C2CCc3cn(CCC(=O)O)c(C#N)c3C2)NC(c2nccs2)=NC1c1ccc(F)c(F)c1Cl (centres unmarked) [Compound 63, 3-(6-(6-(2-Chloro-3,4-difluorophenyl)-5-(ethoxycarbonyl)-2-(thiazol-2-yl)-3,6-dihydropyrimidin-4-yl)-1-cyano-4,5,6,7-tetrahydro-2H-isoindol-2-yl)propanoic acid]
- CC50 at 6 days [1]: 5.1 µM
- EC50 (HBV; [2]): 0.436 µM

Structure (SMILES): COC(=O)C1=C(C2CCc3nc(CCC(=O)O)ncc3C2)NC(c2nccs2)=NC1c1ccc(F)c(F)c1Cl (centres unmarked) [Compound 64, 3-(6-(6-(2-Chloro-3,4-difluorophenyl)-5-(methoxycarbonyl)-2-(thiazol-2-yl)-3,6-dihydropyrimidin-4-yl)-5,6,7,8-tetrahydroquinazolin-2-yl)propanoic acid]
- CC50 at 6 days [1]: 26.4 µM
- EC50 (HBV; [2]): 0.07 µM

Structure (SMILES): CCOC(=O)C1=C(C2CCc3[nH]ncc3C2)NC(c2nccs2)=NC1c1ccc(F)c(F)c1Cl (centres unmarked) [Compound 66, Ethyl 4-(2-chloro-3,4-difluorophenyl)-6-(4,5,6,7-tetrahydro-1H-indazol-5-yl)-2-(thiazol-2-yl)-1,4-dihydropyrimidine-5-carboxylate]
- CC50 at 6 days [1]: 6.4 µM
- EC50 (HBV; [2]): 0.0647 µM

Structure (SMILES): COC(=O)C1=C(C2CCc3nn(CCC(=O)O)cc3C2)NC(c2nccs2)=NC1c1ccc(F)c(F)c1C (centres unmarked) [Compound 76c, 3-(5-(6-(3,4-difluoro-2-methylphenyl)-5-(methoxycarbonyl)-2-(thiazol-2-yl)-3,6-dihydropyrimidin-4-yl)-4,5,6,7-tetrahydro-2H-indazol-2-yl)propanoic acid]
- CC50 at 6 days [1]: 16.1 µM
- EC50 (HBV; [2]): 0.013 µM
